The target of this experiment is Vanilloid receptor (Rattus norvegicus, UniProt Q9ERZ8+Q9WUD2+O35433). The experiment in a line: Inhibition of [Ca2+] uptake in dorsal root ganglion (DRG) neurons from neonatal Sprague-Dawley rat. The class given is functional, tissue-based.

As to `CC(C)(C)c1ccc(C/N=C(\S)NCc2cccc(F)c2)cc1`, the IC50 is more than 30 µM.

As to `CC(C)(C)c1ccc(CNC(=S)NCc2ccc(NS(C)(=O)=O)c(F)c2)cc1`, the IC50 is 0.037 µM.

The compound `Oc1cc2c(cc1O)CN(C(=S)NCCc1ccc(Cl)cc1)CCC2` [CAPSAZEPINE] returned an IC50 of 0.59 µM.

Broadly, the IC50 is the concentration that inhibits the measured activity by half. Read a high IC50 as weaker potency.

(Values after ChEMBL document CHEMBL1136487, “Novel non-vanilloid VR1 antagonist of high analgesic effects and its structural requirement for VR1 antagonistic effects” (Bioorg Med Chem Lett, 2003).)
